Reference: the supplement of paper PMC10307832

Legend:
Experiment in all cases: relative viability (nuclei count vs DMSO), 5 days (fraction); higher = more cells survive
HCC-44 = tested on: HCC-44
Procedure, shortened: (§1)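 Values are medians from duplicate plates. Each reflects relative viability, defined as the nuclei count of treated wells over that of vehicle wells. Lung cancer cell lines in 1536-well plates were pin-tool dosed one day after seeding with one drug alone or with a fixed anchor-drug dose plus five library-drug doses (not always all listed) in √10 steps, then fixed, stained and imaged at 4× after 5 days.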

SK-MES-1 = tested on: SK-MES-1
Procedure, shortened: as §1

NCI-H441 = tested on: NCI-H441
Procedure, shortened: as §1

201T = tested on: 201T
Procedure, shortened: as §1

NCI-H1975 = tested on: NCI-H1975
Procedure, shortened: as §1

EKVX = tested on: EKVX
Procedure, shortened: as §1

LK-2 = tested on: LK-2
Procedure, shortened: as §1

COR-L 105 = tested on: COR-L 105
Procedure, shortened: as §1

NCI-H1437 = tested on: NCI-H1437
Procedure, shortened: as §1

NCI-H596 = tested on: NCI-H596
Procedure, shortened: as §1

NCI-H650 = tested on: NCI-H650
Procedure, shortened: as §1

SW 900 = tested on: SW 900
Procedure, shortened: as §1

NCI-H838 = tested on: NCI-H838
Procedure, shortened: as §1

HCC-827 = tested on: HCC-827
Procedure, shortened: as §1

HCC-15 = tested on: HCC-15
Procedure, shortened: as §1

NCI-H1792 = tested on: NCI-H1792
Procedure, shortened: as §1

NCI-H23 = tested on: NCI-H23
Procedure, shortened: as §1

A-427 = tested on: A-427
Procedure, shortened: as §1

BEN = tested on: BEN
Procedure, shortened: as §1

HARA = tested on: HARA
Procedure, shortened: as §1

NCI-H1666 = tested on: NCI-H1666
Procedure, shortened: as §1

COR-L23 = tested on: COR-L23
Procedure, shortened: as §1

NCI-H358 = tested on: NCI-H358
Procedure, shortened: as §1

O=C(O)c1ccc(-c2c[nH]c3ncc(-c4ccccc4)cc23)cc1C1CCCC1 + COc1cccc2cc(-c3nc([C@H]4CC[C@H](C(=O)O)CC4)n4ncnc(N)c34)[nH]c12 [OSI-027] (partner 0.5 µM)
relative viability (HCC-44; first compound 0.04 µM): 0.512 | relative viability (HCC-44; first compound 0.1265 µM): 0.505 | relative viability (HCC-44; first compound 0.4 µM): 0.594 | relative viability (HCC-44; first compound 1.265 µM): 0.484 | relative viability (SK-MES-1; first compound 0.04 µM): 0.647 | relative viability (SK-MES-1; first compound 0.1265 µM): 0.648 | relative viability (SK-MES-1; first compound 0.4 µM): 0.622 | relative viability (SK-MES-1; first compound 1.265 µM): 0.41 | relative viability (NCI-H441; first compound 0.04 µM): 0.675 | relative viability (NCI-H441; first compound 0.1265 µM): 0.567 | relative viability (NCI-H441; first compound 0.4 µM): 0.571 | relative viability (NCI-H441; first compound 1.265 µM): 0.466 | relative viability (201T; first compound 0.04 µM): 0.693 | relative viability (201T; first compound 0.1265 µM): 0.682 | relative viability (201T; first compound 1.265 µM): 0.716 | relative viability (NCI-H1975; first compound 0.04 µM): 0.7 | relative viability (NCI-H1975; first compound 0.1265 µM): 0.871 | relative viability (NCI-H1975; first compound 0.4 µM): 0.648 | relative viability (NCI-H1975; first compound 1.265 µM): 0.629 | relative viability (EKVX; first compound 0.04 µM): 0.736 | relative viability (EKVX; first compound 0.1265 µM): 0.828 | relative viability (EKVX; first compound 0.4 µM): 0.727 | relative viability (EKVX; first compound 1.265 µM): 0.587 | relative viability (LK-2; first compound 0.04 µM): 0.202 | relative viability (LK-2; first compound 0.1265 µM): 0.23 | relative viability (LK-2; first compound 0.4 µM): 0.165 | relative viability (LK-2; first compound 1.265 µM): 0.195 | relative viability (COR-L 105; first compound 0.04 µM): 0.635 | relative viability (COR-L 105; first compound 0.1265 µM): 0.673 | relative viability (COR-L 105; first compound 0.4 µM): 0.757 | relative viability (COR-L 105; first compound 1.265 µM): 0.838 | relative viability (NCI-H1437; first compound 0.04 µM): 0.898 | relative viability (NCI-H1437; first compound 0.1265 µM): 0.926 | relative viability (NCI-H1437; first compound 0.4 µM): 1.01 | relative viability (NCI-H1437; first compound 1.265 µM): 0.565 | relative viability (NCI-H596; first compound 0.04 µM): 0.728 | relative viability (NCI-H596; first compound 0.1265 µM): 0.733 | relative viability (NCI-H596; first compound 0.4 µM): 0.833 | relative viability (NCI-H596; first compound 1.265 µM): 0.654 | relative viability (NCI-H650; first compound 0.04 µM): 0.522 | relative viability (NCI-H650; first compound 0.1265 µM): 0.6 | relative viability (NCI-H650; first compound 0.4 µM): 0.485 | relative viability (NCI-H650; first compound 1.265 µM): 0.457 | relative viability (SW 900; first compound 0.04 µM): 0.696 | relative viability (SW 900; first compound 0.1265 µM): 0.493 | relative viability (SW 900; first compound 0.4 µM): 0.631 | relative viability (SW 900; first compound 1.265 µM): 0.595 | relative viability (NCI-H838; first compound 0.04 µM): 0.322 | relative viability (NCI-H838; first compound 0.1265 µM): 0.452 | relative viability (NCI-H838; first compound 0.4 µM): 0.4 | relative viability (NCI-H838; first compound 1.265 µM): 0.358 | relative viability (HCC-827; first compound 0.04 µM): 0.65 | relative viability (HCC-827; first compound 0.1265 µM): 0.81 | relative viability (HCC-827; first compound 0.4 µM): 0.725 | relative viability (HCC-827; first compound 1.265 µM): 0.77 | relative viability (HCC-15; first compound 0.04 µM): 0.807 | relative viability (HCC-15; first compound 0.1265 µM): 0.813 | relative viability (HCC-15; first compound 0.4 µM): 0.633 | relative viability (HCC-15; first compound 1.265 µM): 0.399 | relative viability (NCI-H1792; first compound 0.1265 µM): 0.908 | relative viability (NCI-H1792; first compound 0.4 µM): 0.698 | relative viability (NCI-H1792; first compound 1.265 µM): 0.696 | relative viability (NCI-H23; first compound 0.04 µM): 0.599 | relative viability (NCI-H23; first compound 0.1265 µM): 0.71 | relative viability (NCI-H23; first compound 0.4 µM): 0.576 | relative viability (NCI-H23; first compound 1.265 µM): 0.531 | relative viability (A-427; first compound 0.04 µM): 0.48 | relative viability (A-427; first compound 0.1265 µM): 0.54 | relative viability (A-427; first compound 0.4 µM): 0.418 | relative viability (A-427; first compound 1.265 µM): 0.493 | relative viability (BEN; first compound 0.04 µM): 0.329 | relative viability (BEN; first compound 0.1265 µM): 0.269 | relative viability (BEN; first compound 0.4 µM): 0.307 | relative viability (BEN; first compound 1.265 µM): 0.284 | relative viability (HARA; first compound 0.04 µM): 0.463 | relative viability (HARA; first compound 0.1265 µM): 0.733 | relative viability (HARA; first compound 0.4 µM): 0.55 | relative viability (HARA; first compound 1.265 µM): 0.591 | relative viability (NCI-H1666; first compound 0.04 µM): 0.846 | relative viability (NCI-H1666; first compound 0.1265 µM): 0.884 | relative viability (NCI-H1666; first compound 0.4 µM): 0.906 | relative viability (NCI-H1666; first compound 1.265 µM): 0.624 | relative viability (COR-L23; first compound 0.04 µM): 0.763 | relative viability (COR-L23; first compound 0.1265 µM): 0.876 | relative viability (COR-L23; first compound 0.4 µM): 0.701 | relative viability (COR-L23; first compound 1.265 µM): 0.511 | relative viability (NCI-H358; first compound 0.04 µM): 0.807 | relative viability (NCI-H358; first compound 0.1265 µM): 0.933 | relative viability (NCI-H358; first compound 0.4 µM): 0.727 | relative viability (NCI-H358; first compound 1.265 µM): 0.359
